Earlier results on four compounds are cited in patent US6927291B2, “Method for the synthesis of 2′,3′-dideoxy-2′,3′-didehydronucleosides” (Pharmasset, Ltd., priority 2001, dated 2005).

Series [1] relates to HIV. Conditions: result in words.
Series [2] has as its system HIV. Conditions: versus all approved anti-HIV agents.
Series [3] concerns AZT-resistant HIV isolates. The conditions noted are these: in vitro; isolates from patients treated with AZT for longer than 36 weeks.

As to `Nc1ccn([C@@H]2CS[C@H](CO)O2)c(=O)n1` [Formula 3TC], in the series with HIV [1], the “activity against HIV” value was “highly potent against HIV”.

In the case of `Nc1nc(=O)n(C2C=CC(CO)O2)cc1F` [β-D-D4FC, β-D-2′,3′-didehydro-2′,3′-dideoxy-5-fluorocytidine], the cross-resistance entry in the series on HIV [2] was “no cross-resistance with all approved anti-HIV agents”. The “activity against HIV” value with HIV [1] is given as “potent anti-HIV activity in vitro”.

As to `Nc1nc(=O)n([C@@H]2CS[C@H](CO)O2)cc1F` (relative stereo) [FTC, cis-2-hydroxymethyl-5-(5-fluorocytosin-1-yl)-1,3-oxathiolane], in the series with HIV [1], the “activity against HIV” value was “potent HIV activity”.

With `Nc1ccn(C2CSC(CO)O2)c(=O)n1` (racemic) [BCH-189, 2-hydroxymethyl-5-(cytosin-1-yl)-1,3-oxathiolane], the “inhibition of replication of AZT-resistant HIV isolates” value in series [3] is reported as “inhibit the replication of AZT-resistant HIV isolates in vitro”. Moreover, the “activity against HIV” value in the series on HIV [1] was “approximately the same activity against HIV as AZT”.
